Data as given in paper PMC4627230, “Identification of TAX2 peptide as a new unpredicted anti-cancer agent” (Oncotarget, 2015).

Tested on: TSP-1:CD47
Test: Co-immunoprecipitation TSP-1:CD47 in HUVECs
Format: cell-based, human
Conditions: 100 μM vs scrambled peptide 100 μM, n = 3
Protocol: Figure 2 TAX2 peptide impairs endothelial cell migration and inhibits angiogenesis in vitro and ex vivo A. HUVECs were treated with TAX2 (100 μM) or scrambled peptide (Ctrl, 100 μM). CD47 was immunoprecipitated from total protein lysates using anti-CD47 (clone B6H12) and non-specific IgGs were used as a negative control. Immunocomplexes were then submitted to SDS-PAGE and immunoblotted (IB) using specific TSP-1 and CD47 antibodies. Histogram represents the quantification of co-immunoprecipitated TSP-1 relative to immunoprecipitated CD47. Results are expressed as percentage compared to control (n = 3 separate experiments, t test). B. HUVECs (1 × 10^5 per well) were grown at confluence and then cell proliferation was inhibited by incubating with 10 μg/mL mitomycin C for 2 h. […] Graph represents the quantification of the wounded area. […] Hoechst-stained migrating cells attached on outside surface of the top chamber were photographed (20× objective) and counted. Results are expressed as percentage of migrated cells as compared to control. […] After 8 h incubation, HUVEC tube-like formation was observed on an inverted microscope (40×) and quantification of network total length was done using ImageJ software. […] Data are expressed as the mean ± SE from at least 3 independent experiments, each performed in triplicate. […] The transcriptional level of TSP-1 was assessed by RT-PCR and normalized to β-actin. […]

CEVSQLLKGDAC (disulfide) [TAX2, CD47-derived cyclic disulfide dodecapeptide …]
TSP-1 binding to CD47 (co-immunoprecipitation): specifically prevents TSP-1 binding to CD47
